Reference: patent US20230312578A1, “6H-INDOLO[2,3-B]QUINOXALINE DERIVATIVES USEFUL IN THERAPY” (Vironova Medical AB, priority 2020, published 2023)
Where two headings read alike, the source gives them in different places.

Columns and labels:
Format in all cases: cell-based
K-562 = assay: Human tumor cell line growth assay (SRB); settings: K562, Leukemia, K-562, 48 h; for CC50: read-out: LC50 (the source's name)
[1] = Human tumor cell line growth assay (SRB); settings: human, NCI-H226 cells (NSCLC), NCI-H226, 48 h, read-out: LC50
NCI-H226 = assay: Human tumor cell line growth assay (SRB); settings: Homo sapiens; NSCLC, NCI-H226, 48 h
[2] = Human tumor cell line growth assay (SRB); settings: human, NCI-H322M cells (NSCLC), read-out: LC50
NCI-H322M = assay: Human tumor cell line growth assay (SRB); settings: Homo sapiens, NSCLC, 48 h
[3] = Human tumor cell line growth assay (SRB); settings: human, NCI-H460 cells (NSCLC), NCI-H460, 48 h, read-out: LC50
NCI-H460 = assay: Human tumor cell line growth assay (SRB); settings: Homo sapiens; NSCLC, NCI-H460, 48 h
[4] = Human tumor cell line growth assay (SRB); settings: human, HT29 cells (colon), HT29, 48 h, read-out: LC50
HT29 = assay: Human tumor cell line growth assay (SRB); settings: Homo sapiens, HT-29; Colon, HT29, 48 h
[5] = Human tumor cell line growth assay (SRB); settings: human, SF-268 cells (CNS), SF-268, 48 h
SF-268 = assay: Human tumor cell line growth assay (SRB); settings: Homo sapiens; CNS, SF-268, 48 h
[6] = Human tumor cell line growth assay (SRB); settings: human, SF-295 cells (CNS), SF-295, 48 h, read-out: LC50
SF-295 = assay: Human tumor cell line growth assay (SRB); settings: Homo sapiens; CNS, SF-295, 48 h
[7] = Human tumor cell line growth assay (SRB); settings: human, SF-539 cells (CNS), SF-539, 48 h, read-out: LC50
SF-539 = assay: Human tumor cell line growth assay (SRB); settings: Homo sapiens; CNS, SF-539, 48 h
[8] = Human tumor cell line growth assay (SRB); settings: human, U251 cells (CNS), U251, 48 h, read-out: LC50
U251 = assay: Human tumor cell line growth assay (SRB); settings: Homo sapiens, U-251; CNS, U251, 48 h
[9] = Human tumor cell line growth assay (SRB); settings: human, MALME-3M cells (melanoma), read-out: LC50
MALME-3M = assay: Human tumor cell line growth assay (SRB); settings: Homo sapiens, Melanoma, 48 h
[10] = Human tumor cell line growth assay (SRB); settings: human, M14 cells (melanoma), M14, 48 h, read-out: LC50
M14 = assay: Human tumor cell line growth assay (SRB); settings: Homo sapiens; Melanoma, M14, 48 h
[11] = Human tumor cell line growth assay (SRB); settings: human, UACC-257 cells (melanoma), UACC-257, 48 h, read-out: LC50
UACC-257 = assay: Human tumor cell line growth assay (SRB); settings: Homo sapiens; Melanoma, UACC-257, 48 h
UACC-62 = assay: Human tumor cell line growth assay (SRB); settings: Homo sapiens; Melanoma, UACC-62, 48 h
[12] = Human tumor cell line growth assay (SRB); settings: human, OVCAR-3 cells (ovarian), OVCAR-3, 48 h, read-out: LC50
OVCAR-3 = assay: Human tumor cell line growth assay (SRB); settings: Homo sapiens; Ovarian, OVCAR-3, 48 h
[13] = Human tumor cell line growth assay (SRB); settings: human, OVCAR-4 cells (ovarian), OVCAR-4, 48 h, read-out: LC50
[14] = Human tumor cell line growth assay (SRB); settings: human, OVCAR-5 cells (ovarian), OVCAR-5, 48 h, read-out: LC50
OVCAR-5 = assay: Human tumor cell line growth assay (SRB); settings: Homo sapiens; Ovarian, OVCAR-5, 48 h
OVCAR-8 = assay: Human tumor cell line growth assay (SRB); settings: Ovarian, OVCAR-8, 48 h; for CC50: read-out: LC50 (the source's name)
SK-OV-3 = assay: Human tumor cell line growth assay (SRB); settings: Ovarian, SK-OV-3, 48 h; for CC50: read-out: LC50 (the source's name)
ACHN = assay: Human tumor cell line growth assay (SRB); settings: Renal, 48 h; for CC50: read-out: LC50 (the source's name)
UO-31 = assay: Human tumor cell line growth assay (SRB); settings: Renal, UO-31, 48 h; for CC50: read-out: LC50 (the source's name)
PC-3 = assay: Human tumor cell line growth assay (SRB); settings: Prostate, PC-3, 48 h; for CC50: read-out: LC50 (the source's name)
DU-145 = assay: Human tumor cell line growth assay (SRB); settings: Prostate, DU-145, 48 h; for CC50: read-out: LC50 (the source's name)
HS 578T = assay: Human tumor cell line growth assay (SRB); settings: Breast, 48 h; for CC50: read-out: LC50 (the source's name)
Human tumor cell lines = assay: Human tumor cell line growth assay (SRB), summary over the panel; settings: overall over the panel

Compound `Cc1cc2nc3c4cc(N)ccc4n(CCN(C)C)c3nc2cc1C` [JBD-136, 6-(2-(dimethylamino)ethyl)-2,3-dimethyl-6H-indolo [2,3-b]quinoxalin-9-amine] has a GI50 (K-562) of 426 nM, a CC50 (K-562) of 65600 nM and a CC50 at 48 h [1] greater than 100000 nM. The GI50 (NCI-H226) was 1320 nM, the CC50 at 48 h [2] was greater than 100000 nM and the GI50 (NCI-H322M) was 771 nM. It also gave a CC50 at 48 h [3] of 36600 nM, a GI50 (NCI-H460) of 434 nM and a CC50 at 48 h [4] greater than 100000 nM. It also gave a GI50 (HT29) of 430 nM, an LC50 (50% lethal concentration) at 48 h [5] of 42700 nM and a GI50 (SF-268) of 1570 nM. For the same compound, the CC50 at 48 h [6] was 33800 nM, the GI50 (SF-295) was 1240 nM and the CC50 at 48 h [7] was 19500 nM. The GI50 (SF-539) was 882 nM, the CC50 at 48 h [8] was 54200 nM and the GI50 (U251) was 640 nM. It also gave a CC50 at 48 h [9] of 7430 nM, a GI50 (MALME-3M) of 1270 nM and a CC50 at 48 h [10] of 6430 nM. For the same compound, the GI50 (M14) was 1120 nM, the CC50 at 48 h [11] was 71500 nM and the GI50 (UACC-257) was 1500 nM. For the same compound, the GI50 (UACC-62) was 1180 nM, the CC50 at 48 h [12] was 75800 nM and the GI50 (OVCAR-3) was 1560 nM. The CC50 at 48 h [13] was 59000 nM, the CC50 at 48 h [14] was greater than 100000 nM and the GI50 (OVCAR-5) was 1240 nM. The GI50 (OVCAR-8) was 556 nM, the CC50 (OVCAR-8) was greater than 100000 nM and the GI50 (SK-OV-3) was 2230 nM. It also gave a CC50 (SK-OV-3) greater than 100000 nM, a GI50 (ACHN) of 367 nM and a CC50 (ACHN) of 57300 nM. It also gave a GI50 (UO-31) of 332 nM, a CC50 (UO-31) of 55300 nM and a GI50 (PC-3) of 1280 nM. It also gave a CC50 (PC-3) of 51900 nM, a GI50 (DU-145) of 1550 nM and a CC50 (DU-145) of 47800 nM. The GI50 (HS 578T) was 2120 nM, the CC50 (HS 578T) was greater than 100000 nM and the “growth inhibition (GI50), comparison in words” value (Human tumor cell lines) was “slightly improved growth inhibition and cytotoxicity compared to B220”.
`Cc1cc2nc3c4cc([N+](=O)[O-])ccc4n(CCN(C)C)c3nc2cc1C` [JBA-185, 2-(2,3-dimethyl-9-nitro-6H-indolo[2,3-b]quinoxalin-6-yl)-N,N-dimethylethanamine] showed a GI50 (K-562) of 360 nM, a CC50 (K-562) greater than 100000 nM and a CC50 at 48 h [1] greater than 100000 nM. For the same compound, the GI50 (NCI-H226) was 521 nM, the CC50 at 48 h [2] was greater than 100000 nM and the GI50 (NCI-H322M) was 467 nM. For the same compound, the CC50 at 48 h [3] was 26700 nM, the GI50 (NCI-H460) was 350 nM and the CC50 at 48 h [4] was greater than 100000 nM. It also gave a GI50 (HT29) of 375 nM, an LC50 (50% lethal concentration) at 48 h [5] greater than 100000 nM and a GI50 (SF-268) of 793 nM. For the same compound, the CC50 at 48 h [6] was 8640 nM, the GI50 (SF-295) was 388 nM and the CC50 at 48 h [7] was 18100 nM. For the same compound, the GI50 (SF-539) was 387 nM, the CC50 at 48 h [8] was greater than 100000 nM and the GI50 (U251) was 470 nM. For the same compound, the CC50 at 48 h [9] was 5100 nM, the GI50 (MALME-3M) was 542 nM and the CC50 at 48 h [10] was 7280 nM. For the same compound, the GI50 (M14) was 499 nM, the CC50 at 48 h [11] was 34400 nM and the GI50 (UACC-257) was 732 nM. It also gave a GI50 (UACC-62) of 514 nM, a CC50 at 48 h [12] greater than 100000 nM and a GI50 (OVCAR-3) of 590 nM. For the same compound, the CC50 at 48 h [13] was greater than 100000 nM, the CC50 at 48 h [14] was greater than 100000 nM and the GI50 (OVCAR-5) was 587 nM. It also gave a GI50 (OVCAR-8) of 550 nM, a CC50 (OVCAR-8) greater than 100000 nM and a GI50 (SK-OV-3) of 704 nM. The CC50 (SK-OV-3) was greater than 100000 nM, the GI50 (ACHN) was 316 nM and the CC50 (ACHN) was 2460 nM. For the same compound, the GI50 (UO-31) was 187 nM, the CC50 (UO-31) was 21200 nM and the GI50 (PC-3) was 187 nM. For the same compound, the CC50 (PC-3) was greater than 100000 nM, the GI50 (DU-145) was 540 nM and the CC50 (DU-145) was greater than 100000 nM. For the same compound, the GI50 (HS 578T) was 1570 nM, the CC50 (HS 578T) was greater than 100000 nM and the “cytotoxicity, comparison in words” value (Human tumor cell lines) was “less cytotoxic than B220”. The “growth inhibition (GI50), comparison in words” value (Human tumor cell lines) was “lower GI50 compared to B220”.
